Laboratory results reported in patent US4057530A, “2-Phenyl-indole derivatives and process for preparing the same” (priority 1974, dated 1977).
Values joined by “and” are separate entries in the source; they are usually repeats but may differ in a detail not shown here. Equal entries are not always repeated. “Also recorded” adds a separate entry of the source.

Legend:
[1] = Acute toxicity by oral route in mice (LD50); assay type: in vivo; conditions: mouse, in vivo, gummy suspension
Method: (§1) The study of the acute toxicity of the stabilizers listed below was carried out by determining the dose of substance which provoked the death of 50% of the treated animals (LD50). A gummy suspension of the substance under study was administered by oral route to groups of at least ten mice and the following results were observed: […]

[2] = system: mice; assay: Acute toxicity by oral route in mice (LD50); assay type: in vivo; conditions: LD50 study
Method: as §1

[3] = Static thermostability of stabilized resin, GARDNER Scale Comparator, Compound B; conditions: 210° C
Method: (§2) The stabilizing power of the substances of the invention was studied from two points of view:
(§3) These studies were performed with six different formulae of vinyl resins (hereinafter referred to as Compounds).
(§4) The different compounds were mixed and calendered in a mixer of which the cylinders were heated to 160° C. The rigid sheets so obtained were then heated in an oven to a temperature between 180° C and 215° C, until incipient carbonization.
(§5) A stove with rotating drums, ventilated and equipped with a thermostat was used for this operation. In the trials described hereunder, the behaviour of a sheet containing the stabilizer to be tested was compared to that of a sheet of the same formula but containing 2-phenyl-indole as stabilizer.
(§6) 1. The colouration of the sheets, of which samples were removed from the stove at fixed intervals was compared to a standard scale of colouration, known as the GARDNER Scale, and expressed in terms of the reference figures of the GARDNER Scale.
(§7) Comparisons were made with a GARDNER Scale Comparator which contains 18 filters of coloured glass and which offers the possibility of observing by transparency and in a limited field of view both the sheet and the reference filters.
Compound B was used and the sheets obtained presented the following characteristics: […]

[4] = Static thermostability of stabilized resin, GARDNER Scale Comparator, Compound A; conditions: 185° C
Method: as §2, §3, §4, §5, §6, §7

[5] = Static thermostability of stabilized resin, simplified method (GARDNER sub-scale), Compound A; conditions: 210° C
Method: as §2, §3, §4, §5
(§8) 2. It is also possible to use a simplified method which is more rapid and with which valid results are also obtained: a reference scale is drawn up with sheets of thermally treated polyvinyl chloride, of which the colourations have been definitely determined in GARDNER degrees as above. A GARDNER sub-scale is thus obtained in polyvinyl chloride sheets which can be directly compared to the sheets to be tested without using the comparator.
Finally, trials were carried out with Stabilizers 15, 16 and 17 and with 2-phenyl-indole. Compound A was used and the temperature was 210° C.

[6] = Static thermostability of stabilized resin, simplified method (GARDNER sub-scale), Compound D; conditions: 185° C
Method: as §2, §3, §4, §5, §8

[7] = Static thermostability of stabilized resin, simplified method (GARDNER sub-scale), Compound E; conditions: 185° C
Method: as §2, §3, §4, §5, §8

[8] = Static thermostability of stabilized resin, simplified method (GARDNER sub-scale), Compound C; conditions: 210° C
Method: as §2, §3, §4, §5, §8

[9] = Sticking of the stabilized material; conditions: cylinders at 210° C, 3 min mixing / 3 min rest
Method: Compounds Nos. 609 and 675 were placed in a mixer of the type previously used for studying static thermostability with cylinders at a fixed temperature of 210° C.
They were submitted to alternate periods of 3 minutes of mixing and 3 minutes of rest.

[10] = Sublimation of the stabilizers; assay type: physicochemical; conditions: 120° C, cold wall 13° C, 15 Torr, 150 min
Excerpt: A sample of the substance to be tested was introduced into a test tube and heated under reduced pressure. The fraction of sublimated substance was recovered on a mobile cold wall.
After a certain period of time, the sublimated substance was weighed and the result expressed as a percentage of the weight of the starting-material.
The results obtained can only be of relative value, enabling a comparison to be made between two products tested under the same conditions.
Operating conditions (chosen at random).
Temperature of heating 120° C
Temperature of the cold wall
Duration of heating 150 minutes

[11] = assay type: physicochemical
Excerpt: The thermostability of Stabilizer 8 and that of 2-phenyl-indole were studied by differential thermoanalysis and by thermogravimetric analysis. […] Diagrams were made out for 2-phenyl-indole (i) and Compound 8 (ii) and enabled the following conclusions to be drawn: […]

[12] = Thermostability of the stabilizers: thermogravimetric analysis; assay type: physicochemical; conditions: 80° C/hour, under air
Method: The thermostability of Stabilizer 8 and that of 2-phenyl-indole were studied by differential thermoanalysis and by thermogravimetric analysis.
This analysis necessitated two series of trials carried out under air and under inert gas (Argon) in order to eliminate any possible effect of oxygen. The results obtained were identical.
The temperature increase rate was 80° C/hour. Thermograms were drawn up under air for both 2-phenyl-indole (i) and for Stabilizer 8 (ii) and enabled the following conclusion to be drawn: […]

c1ccc(-c2cc3ccccc3[nH]2)cc1 [2-phenyl-indole]
LD50 [1]: > 3000 mg/kg | Toxic symptoms [2]: none | Colouration of sheet (GARDNER Scale) ([3]; 0 min): 1 GARDNER degrees | Colouration of sheet (GARDNER Scale) ([3]; 3 min): 1 GARDNER degrees | Colouration of sheet (GARDNER Scale) ([3]; 6 min): 2 GARDNER degrees | Colouration of sheet (GARDNER Scale) ([3]; 9 min): 3 GARDNER degrees | Colouration of sheet (GARDNER Scale) ([3]; 12 min): 4 GARDNER degrees | Colouration of sheet (GARDNER Scale) ([3]; 15 min): 6 GARDNER degrees | Colouration of sheet (GARDNER Scale) ([3]; 18 min): 8 GARDNER degrees | Colouration of sheet (GARDNER Scale) ([3]; 21 min): > 18 GARDNER degrees | Thickness of sheet ([3]; after 21 min): 0.9 mm | State of sheet ([3]; after 24 min): burnt | Colouration of sheet (GARDNER Scale) ([4]; 0 min): 1 GARDNER degrees | Colouration of sheet (GARDNER Scale) ([4]; 6 min): 1 GARDNER degrees | Colouration of sheet (GARDNER Scale) ([4]; 12 min): 3 GARDNER degrees | Colouration of sheet (GARDNER Scale) ([4]; 18 min): 5 GARDNER degrees | Colouration of sheet (GARDNER Scale) ([4]; 24 min): 11 GARDNER degrees | Colouration of sheet (GARDNER Scale) ([4]; 30 min): 12 GARDNER degrees | Colouration of sheet (GARDNER Scale) ([4]; 36 min): 14 GARDNER degrees | Colouration of sheet (GARDNER Scale) ([4]; 42 min): 14 GARDNER degrees | Colouration of sheet (GARDNER Scale) ([4]; 48 min): 14 GARDNER degrees | Colouration of sheet (GARDNER Scale) ([4]; 54 min): burnt | Colouration of sheet (GARDNER sub-scale) ([5]; 0 min): 1 GARDNER degrees | Colouration of sheet (GARDNER sub-scale) ([5]; 3 min): 2 GARDNER degrees and 1 GARDNER degrees | Colouration of sheet (GARDNER sub-scale) ([5]; 3 min, listed as 2-phenyl-inodle): 2 GARDNER degrees | Colouration of sheet (GARDNER sub-scale) ([5]; 6 min): 2.5 GARDNER degrees and 2 GARDNER degrees and 3 GARDNER degrees | Colouration of sheet (GARDNER sub-scale) ([5]; 6 min, listed as 2-phenyl-inodle): 3 GARDNER degrees | Colouration of sheet (GARDNER sub-scale) ([5]; 9 min, listed as 2-phenyl-inodle): 8 GARDNER degrees | Colouration of sheet (GARDNER sub-scale) ([5]; 12 min): 11 GARDNER degrees and 10 GARDNER degrees and 9 GARDNER degrees | Colouration of sheet (GARDNER sub-scale) ([5]; 12 min, listed as 2-phenyl-inodle): 11 GARDNER degrees | Colouration of sheet (GARDNER sub-scale) ([5]; 15 min): 13 GARDNER degrees and 12 GARDNER degrees and 14 GARDNER degrees | Colouration of sheet (GARDNER sub-scale) ([5]; 15 min, listed as 2-phenyl-inodle): 12 GARDNER degrees | Colouration of sheet (GARDNER sub-scale) ([5]; 18 min): burnt | Burning of sheet ([5]; at 15 min): burnt along its edges; also recorded: badly burnt | Colouration of sheet (GARDNER sub-scale) ([6]; 0 min): 1 GARDNER degrees | Colouration of sheet (GARDNER sub-scale) ([6]; 10 min): 2 GARDNER degrees | Colouration of sheet (GARDNER sub-scale) ([6]; 20 min): > 2 GARDNER degrees | Colouration of sheet (GARDNER sub-scale) ([6]; 30 min): 3 GARDNER degrees | Colouration of sheet (GARDNER sub-scale) ([7]; 0 min): < 1 GARDNER degrees | Colouration of sheet (GARDNER sub-scale) ([7]; 10 min): 1 GARDNER degrees | Colouration of sheet (GARDNER sub-scale) ([7]; 20 min): 2 GARDNER degrees | Colouration of sheet (GARDNER sub-scale) ([7]; 30 min): 3 GARDNER degrees | Colouration of sheet (GARDNER sub-scale) ([8]; 0 min): 1 GARDNER degrees | Colouration of sheet (GARDNER sub-scale) ([8]; 10 min): 1.5 GARDNER degrees | Colouration of sheet (GARDNER sub-scale) ([8]; 20 min): 2 GARDNER degrees | Colouration of sheet (GARDNER sub-scale) ([8]; 30 min): < 3 GARDNER degrees | Colouration of sheet (GARDNER sub-scale) ([8]; 40 min): 3 GARDNER degrees | Colouration of sheet (GARDNER sub-scale) ([8]; 50 min): > 3 GARDNER degrees | Colouration of sheet (GARDNER sub-scale) ([8]; 55 min): 3.5 GARDNER degrees | Colouration of sheet (GARDNER sub-scale) ([8]; 60 min): > 4 GARDNER degrees | Sticking of the stabilized material [9]: comparable | Percentage of sublimated substance [10]: 26.9% | Temperature from which it particularly sublimates (melting point) [11]: 185-190 °C | Loss of water at 100° C ([11]; 2° C/minute): no loss of water at 100 °C | Sublimation temperature ([11]; 2° C/minute): 140 °C | Decomposition residue at 210° C [12]: a yellowish residue was, in fact, obtained at 210 °C which constitutes proof of decomposition
